Data as given in patent publication US11524966B1 (Valo Early Discovery, Inc., priority 2017, dated 2022).
pIC50: −log10 of the molar value.

Target: T1, USP28 (His-tagged USP28-FL-mammalian) (Homo sapiens, UniProt Q96RU2)
T1 construct: Expression of USP28 (1-1077)-TEV-6*His (pTT5 vector); made in house; host or cells: Expi293f cells (pTT5 vector)
T1 sequence (Q96RU2 1-1077): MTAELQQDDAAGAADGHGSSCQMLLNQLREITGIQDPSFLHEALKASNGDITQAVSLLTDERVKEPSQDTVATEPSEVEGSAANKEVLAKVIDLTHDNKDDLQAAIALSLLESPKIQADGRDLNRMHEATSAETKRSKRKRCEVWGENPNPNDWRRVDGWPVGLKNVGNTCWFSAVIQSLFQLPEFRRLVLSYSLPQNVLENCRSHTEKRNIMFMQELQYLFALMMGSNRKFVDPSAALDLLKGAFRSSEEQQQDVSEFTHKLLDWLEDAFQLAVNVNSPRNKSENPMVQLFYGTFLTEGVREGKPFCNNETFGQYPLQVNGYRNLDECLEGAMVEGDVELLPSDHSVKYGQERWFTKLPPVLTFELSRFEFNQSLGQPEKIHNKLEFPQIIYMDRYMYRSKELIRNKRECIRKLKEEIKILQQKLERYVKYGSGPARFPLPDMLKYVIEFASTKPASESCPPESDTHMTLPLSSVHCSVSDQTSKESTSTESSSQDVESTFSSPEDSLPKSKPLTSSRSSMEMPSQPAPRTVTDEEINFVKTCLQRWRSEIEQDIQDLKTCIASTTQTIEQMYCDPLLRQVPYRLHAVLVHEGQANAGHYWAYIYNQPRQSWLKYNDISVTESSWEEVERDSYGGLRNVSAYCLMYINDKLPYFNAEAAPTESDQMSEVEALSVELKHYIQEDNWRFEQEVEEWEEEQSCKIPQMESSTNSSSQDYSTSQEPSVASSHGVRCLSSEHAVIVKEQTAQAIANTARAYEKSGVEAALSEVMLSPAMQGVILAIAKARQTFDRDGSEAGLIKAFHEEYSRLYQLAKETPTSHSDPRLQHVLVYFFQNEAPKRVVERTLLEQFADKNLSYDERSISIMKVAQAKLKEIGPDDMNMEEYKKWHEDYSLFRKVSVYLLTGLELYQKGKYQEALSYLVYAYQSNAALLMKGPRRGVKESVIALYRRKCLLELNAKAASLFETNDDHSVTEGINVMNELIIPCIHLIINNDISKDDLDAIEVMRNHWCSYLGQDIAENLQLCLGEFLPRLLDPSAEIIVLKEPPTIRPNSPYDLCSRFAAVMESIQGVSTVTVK
Test: Ubiquitin-Rhodamine 110 Assay for USP28 Activity, Example A-1(a)
Type: biochemical
Conditions: Ubiquitin-Rhodamine 110 assay, Example A-1(a); read-out: USP28 A-1(a) IC50 range
In short: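 Full-length His-tagged USP28 (1-1077, Expi293F-expressed; […]) was preincubated 30 min with compound (25 μM–1.3 nM, 10-point 3-fold) in 20 mM Tris-HCl pH 8.0, 3 mM BME, 0.03% BGG, 0.01% Triton X-100. Ub-Rh110 (25 nM) was then added for 45 min at room temperature, stopped with citric acid, and read by fluorescence (485/535 nm).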

| Structure (SMILES) | pIC50 |
| --- | --- |
| CO[C@H]1CN(c2ccc3c(c2)OC[C@H](NC(=O)c2sc4nc(C)cnc4c2N)C3)C[C@@H]1N [Example 117, 7-amino-N-[(3R)-7-[(3S,4S)-3-amino-4-methoxypyrrolidin-1-yl]-3,4-dihydro-2H-1-benzopyran-3-yl]-3-methylthieno[2,3-b]pyrazine-6-carboxamide] | 7.30 to 9.00 |
| Cc1ccc2c(N)c(C(=O)N[C@H]3COc4cc(N5C[C@H](OC6CCC6)[C@@H](N)C5)ccc4C3)sc2n1 [Example 141, 3-amino-N-[(3R)-7-[(3S,4S)-3-amino-4-cyclobutoxypyrrolidin-1-yl]-3,4-dihydro-2H-1-benzopyran-3-yl]-6-methylthieno[2,3-b]pyridine-2-carboxamide] | 7.30 to 9.00 |
| CO[C@H]1CN(c2cc(F)c3c(c2)CC[C@H](NC(=O)c2sc4nc(C)ccc4c2N)C3)C[C@@H]1N [Example 136, 3-amino-N-[(2S)-6-[(3S,4S)-3-amino-4-methoxypyrrolidin-1-yl]-8-fluoro-1,2,3,4-tetrahydronaphthalen-2-yl]-6-methylthieno[2,3-b]pyridine-2-carboxamide] | < 5.70 |
| CO[C@H]1CN(c2cc(F)c3c(c2)OC[C@H](NC(=O)c2sc4nc(C)ccc4c2N)C3)C[C@H]1N [Example 146] | 7.30 to 9.00 |
| Cc1ccc2c(N)c(C(=O)N[C@H]3CCc4cc(N5CC6CCC(C5)N6)ccc4C3)oc2n1 [Example 171, 3-amino-N-[(2S)-6-{3,8-diazabicyclo[3.2.1]octan-3-yl]-1,2,3,4-tetrahydronaphthalen-2-yl]-6-methylfuro[2,3-b]pyridine-2-carboxamide] | < 5.70 |
| CO[C@H]1CN(c2ccc3c(c2)OC[C@H](NC(=O)c2sc4nc(C)sc4c2N)C3)C[C@@H]1N [Example 118, 6-amino-N-[(3R)-7-[(3S,4S)-3-amino-4-methoxypyrrolidin-1-yl]-3,4-dihydro-2H-1-benzopyran-3-yl]-2-methylthieno[2,3-d][1,3]thiazole-5-carboxamide] | 6.70 to 7.30 |
| Cc1cc(C)c2c(N)c(C(=O)N[C@H]3COc4cc(N5CCNCC5)c(F)c(F)c4C3)sc2n1 [Example 159, 3-amino-N-[(3R)-5,6-difluoro-7-(piperazin-1-yl)-3,4-dihydro-2H-1-benzopyran-3-yl]-4,6-dimethylthieno[2,3-b]pyridine-2-carboxamide] | < 5.70 |
| Cc1cc(C)c2c(N)c(C(=O)N[C@@H]3COc4cc(N5CCNCC5)c(F)c(F)c4C3)sc2n1 [Example 160, 3-amino-N-[(3S)-5,6-difluoro-7-(piperazin-1-yl)-3,4-dihydro-2H-1-benzopyran-3-yl]-4,6-dimethylthieno[2,3-b]pyridine-2-carboxamide] | 7.30 to 9.00 |
| Cc1ccc2c(N)c(C(=O)N[C@H]3COc4cc(N5CC[C@H]6CNC[C@H]65)ccc4C3)sc2n1 [Example 166, N-[(3R)-7-[(3aS,6aS)-octahydropyrrolo[2,3-c]pyrrol-1-yl]-3,4-dihydro-2H-1-benzopyran-3-yl]-3-amino-6-methylthieno[2,3-b]pyridine-2-carboxamide] | 7.30 to 9.00 |
| CO[C@H]1CN(c2ccc3c(c2)OC[C@H](NC(=O)c2sc4nc(C)sc4c2N)C3)C[C@H]1N [Example 150] | 6.70 to 7.30 |
| CCO[C@H]1CN(c2ccc3c(n2)CC[C@H](NC(=O)c2sc4nc(C)ccc4c2N)C3)C[C@@H]1N [Example 142, 3-amino-N-[(6S)-2-[(3S,4S)-3-amino-4-ethoxypyrrolidin-1-yl]-5,6,7,8-tetrahydroquinolin-6-yl]-6-methylthieno[2,3-b]pyridine-2-carboxamide] | 5.70 to 6.70 |
| Cc1ccc2c(N)c(C(=O)N[C@H]3CCc4cc(N5CC6CNCC(C5)O6)c(C#N)cc4C3)sc2n1 [Example 109, 3-amino-N-[(2S)-7-cyano-6-{9-oxa-3,7-diazabicyclo[3.3.1]nonan-3-yl}-1,2,3,4-tetrahydronaphthalen-2-yl]-6-methylthieno[2,3-b]pyridine-2-carboxamide] | 7.30 to 9.00 |
